Results as given in patent EP0556962A1, “Small peptide and pseudopeptide amides inhibiting the proliferation of small-cell and epithelial-cell lung cancer cells” (RICHTER GEDEON VEGYESZETI GYAR R.T., priority 1992, dated 1993).
Where a SMILES comes first, the peptide text is derived from it. [ ]: non-standard residue; d: D form. The star is where a group is joined. X2 = CC(C)C[C@@H](CN[C@@H](CC(C)C)C(N)=O)N*; X1 = O=C(Cc1ccc(O)cc1)*

Tested on: BN receptors on the Swiss 3T3 mouse fibroblast cell line
Assay: Test 1: displacement of [¹²⁵I-Tyr⁴]-BN from BN receptors on Swiss 3T3 cells
Assay type: binding
Details: 1 nmol [¹²⁵I-Tyr⁴]-BN, 4 °C, 3 hours
Description: The biological investigation of the new compounds of the invention was carried out in four tests. The BN-antagonizing effect of the compounds in question was determined in Test 1, based on measuring the displacement of the labelled [¹²⁵I-Tyr⁴]-BN from the BN receptors being present on the Swiss 3T3 mouse fibroblast cells. Test 2 and Test 3 were used to study the inhibitory effect of the compounds of the invention on the proliferation and propagation of NCI-H69 small-cell lung cancer cells. The inhibitory effect of the compounds of the invention on non-small-cell lung cancer cells and epithelial-cell lung cancer cells was investigated in Test 4.
Study of the binding of target compounds to BN receptors on the Swiss 3T3 mouse fibroblast cell line
Swiss 3T3 mouse fibroblast cells were grown on tissue-cultivating plates containing 24 holes in a D-MEM culture medium containing FCS of 10 % until a confluent and resting state (3x10⁵ cell/hole). The cells were washed 3 times with 0.5 ml of D-MEM of pH 7.4 (containing 0.2 % of BSA and 24 mmol of HEPES, and cooled to 4 °C), i.e. incubation mixture, each. […] At the end of the reaction the cells were washed twice with the incubation mixture and then 3 times with PBS (pH = 7.4).
The washings were carried out with 750 µl volumes of the ice-cold liquids each. The cells were solubilized by adding 750 µl of 0.5 M sodium hydroxide solution, carried over into test-tubes by pipette and the radio-activity bound to the cells was measured. The grade of aspecific binding was determined in the presence of a high concentration (10⁻⁶ mol/l) of cold [Tyr⁴]-BN. The amount of the specifically bound, labelled hormone was expressed as the percentage of the maximum binding, i.e. the specific binding in the absence of the compounds to be tested, as shown in Table 1.

Structure (SMILES)	Displacement as percentage of control net binding (1.18 µmol/l compound)	Displacement as percentage of control net binding (2.36 µmol/l compound)	Displacement as percentage of control net binding (4.71 µmol/l compound)	Displacement as percentage of control net binding (9.42 µmol/l compound)	Displacement as percentage of control net binding (18.8 µmol/l compound)	Displacement as percentage of control net binding (37.6 µmol/l compound)	Displacement as percentage of control net binding (75 µmol/l compound)
CC(C)C[C@H](NC(=O)[C@H](CC(C)C)NC(=O)[C@@H](Cc1c[nH]c2ccccc12)NC(=O)[C@H](Cc1ccccc1)NC(=O)[C@@H](Cc1c[nH]c2ccccc12)NC(=O)Cc1ccc(O)cc1)C(N)=O [(I), reference compound] (X1-[dW]F[dW]LL-NH2)	108%	98%	83%	55%	33%	18%	23%
CC(C)C[C@@H](CN[C@@H](CC(C)C)C(N)=O)NC(=O)[C@@H](Cc1c[nH]c2ccccc12)NC(=O)[C@H](Cc1ccccc1)NC(=O)[C@@H](Cc1c[nH]c2ccccc12)NC(=O)[C@H](N)Cc1ccc(O)cc1 [(4)] (H-[dY][dW]F[dW]-X2)	85%	88%	79%	72%	61%	52%	45%
CC(C)C[C@@H](CN[C@@H](CC(C)C)C(N)=O)NC(=O)[C@@H](Cc1c[nH]c2ccccc12)NC(=O)[C@H](Cc1ccccc1)NC(=O)[C@@H](Cc1c[nH]c2ccccc12)NC(=O)Cc1ccc(O)cc1 [(1)]	105%	96%	99%	103%	106%	107%	105%
